Assay type in all cases: binding
The target in assay [1] is ELIC-α1GABAAR (Homo sapiens, UniProt P14867). As to the method: (§1) One hundred microlitres of ELIC-α1GABAAR (0.3 μM) was transferred into a 50-μl window quartz cuvette maintained at 4°C, and NaI was added to the protein sample to a final concentration of 100 mM and incubated for 10 min. MQ290 was then added at a concentration of 3 μM for 3α-OH NS inhibition curves or 1 μM for 3β-OH NS inhibition curves and incubated for 30 min. One-microlitre aliquots of 3α-OH and 3β-OH NS from their corresponding stock solutions (prepared in Buffer A + 0.015% DDM) were added to achieve concentrations between 0.01 and 30 μM. The background emission spectra of ligands alone were obtained for each ligand concentration in the absence of protein and were subtracted from the protein-ligand emission spectra to yield background subtracted data. The MQ290 FRET spectra for different ligand concentrations were estimated using the method described above. The 370-nm intensities of the FRET spectra were plotted against ligand concentration and fitted to a four-parameter logistic curve to obtain IC50 data (GraphPad Software version 9.4.0, San Diego, CA). Ki values were calculated using the relationship: Ki=IC50/1+LT/Kd
Sequence of ELIC-α1GABAAR (P14867 other isoform, or with tags, fused parts or gaps): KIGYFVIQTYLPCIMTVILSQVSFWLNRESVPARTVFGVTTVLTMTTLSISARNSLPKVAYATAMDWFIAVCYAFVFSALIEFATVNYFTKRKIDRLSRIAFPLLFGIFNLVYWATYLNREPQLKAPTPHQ
Sequence of ELIC-α1GABAAR (P0C7B7 1-198, further chain): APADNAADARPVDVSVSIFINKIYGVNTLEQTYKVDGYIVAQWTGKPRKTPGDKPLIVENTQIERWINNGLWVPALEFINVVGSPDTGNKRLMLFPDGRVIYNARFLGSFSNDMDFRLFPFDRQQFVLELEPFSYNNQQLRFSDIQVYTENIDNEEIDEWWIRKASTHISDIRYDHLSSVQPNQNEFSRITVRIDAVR
where LT is the concentration of MQ290 and Kd was determined from the MQ290 binding curve.

Assay [2] has as its target T1, ELIC-α1^W246LGABAAR (Homo sapiens, UniProt P14867, W273L). The experiment in a line: biochemical. The procedure:
ELIC-α1GABAAR was expressed and purified according to a previously published protocol ([Q. Chen et al., 2018]). The purified protein was aliquoted and stored at −80°C. Mutagenesis was performed as described in previous reports ([Kinde et al., 2016]) by oligonucleotide-directed mutagenesis using Phu polymerase (Thermo Fisher Scientific, Waltham, MA, USA) verified by sequencing. ELIC-α1GABAAR was expressed in OverExpress™ C43(D3) E. coli, derived from Rosetta™(DE3) cells under double selection with kanamycin and chloramphenicol for ELIC-α1GABAAR.
One hundred microlitres of purified ELIC-α1GABAAR (0.3 μM in Buffer A + 0.015% DDM) was transferred into a 50-μl window quartz cuvette (Starna Cells, Atascadero, CA, USA), which was placed in a cuvette holder maintained at 4°C. […] Two microlitres of NaI (AK Scientific, Union City, CA, USA; 5-M stock prepared in 0.1-Mm sodium hydrosulfite [Sigma-Aldrich, St. Louis, MO, USA]) was added to the protein (final concentration = 100 mM) and incubated for 10 min to reduce the fluorescence emission from hydrophilic tryptophans. To measure the concentration–dependent effects of NS on tryptophan fluorescence, 1 μl of NS from each 100× stock solution was sequentially added to the NaI-equilibrated protein and thoroughly mixed to achieve concentrations from 0.01 to 50 μM. […]

Assay [3] has as its target T1, ELIC-α1^W246LGABAAR. Nature of the assay: Inhibition of MQ290 FRET by NS in W246L receptors. The conditions noted are these: 30 μM NS; MQ290 1 μM. As to the method: as §1

T1 sequence (P14867 other isoform, or with tags, fused parts or gaps W273L): as the sequence (P14867 other isoform, or with tags, fused parts or gaps) above, with W25L counted along it
T1 sequence (P0C7B7 1-198, further chain): as the sequence (P0C7B7 1-198, further chain) above

With `CC(=O)[C@H]1CC[C@H]2[C@@H]3CC[C@H]4C[C@@H](O)CC[C@]4(C)[C@H]3CC[C@]12C` [Epi-AlloP, epi-allopregnanolone], the Hill slope (in general, a measure of the steepness of the concentration-response curve) in assay [1] (3β-OH NS, MQ290 1 μM) is −0.68 ± 0.45. Further, the “mechanism of inhibition of MQ290 binding” value in assay [1] (MQ290 binding curves with 3×Kd and 30 μM NS) is “allosteric mechanism of inhibition”. The midpoint of inhibition in assay [2], the IC50, lay at 340 ± 130 nM. The “inhibition of remaining MQ290 FRET signal in W246L” value in assay [3] is “reduced by neither”.

For the origin of these results see paper PMC11585924, “Direct measurements of neurosteroid binding to specific sites on GABAA receptors” (British journal of pharmacology, 2024).
